Test results: paper PMC9532558 (Acta Pharmaceutica Sinica. B, 2022)

Biological target: ATP6V0D1 (V-ATPase V0 domain subunit d1) (Homo sapiens, UniProt P61421)
Experiment: SPR
Type: binding

Chain of ATP6V0D1 (V-ATPase V0 domain subunit d1) (P61421 whole entry, the tested form may be a part): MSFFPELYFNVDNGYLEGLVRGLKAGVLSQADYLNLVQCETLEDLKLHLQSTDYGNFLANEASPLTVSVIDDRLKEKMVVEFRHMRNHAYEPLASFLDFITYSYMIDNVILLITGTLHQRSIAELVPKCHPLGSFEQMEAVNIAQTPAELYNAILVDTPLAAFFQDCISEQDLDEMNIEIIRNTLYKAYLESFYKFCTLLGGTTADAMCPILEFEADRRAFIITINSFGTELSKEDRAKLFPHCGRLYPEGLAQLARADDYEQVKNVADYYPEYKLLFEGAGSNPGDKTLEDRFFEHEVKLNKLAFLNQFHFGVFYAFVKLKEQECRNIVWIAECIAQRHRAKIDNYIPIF

## COc1cc2c(c(OC)c1OC)-c1c(cc(OC)c(OC)c1OC)C[C@](C)(O)[C@@H](C)C2 [SolA, Schisandrol A]
  Kd: 2000 nM
